From ChEMBL document CHEMBL5052856, “Inhibitors of apol1 and methods of using same” (2021)

How the values were obtained:
Apolipoprotein L1 = Apolipoprotein L1 (Homo sapiens, UniProt O14791); experiment: Inhibition of APOL1 G1 variant in human HEK293-T-REx cells measured by Thallium assay; assay type: cell-based
[1] = system: Trypanosoma brucei brucei; experiment: Antitrypanosomal activity against Trypanosoma brucei brucei assessed as trypanosome lysis using recombinant APOL1 protein G1 variant and measured by Alamar blue based fluoresence assay; assay type: functional, organism-based

| Compound | IC50 (Apolipoprotein L1) [nM] | IC50 [1] [nM] |
| --- | --- | --- |
| O=C(NCC1(O)CCCC1)[C@H]1C[C@H](c2c(-c3ccc(F)cc3)[nH]c3c(F)cc(F)cc32)C1 | > 1000 | > 1000 |
| COC1CC1NC(=O)[C@H]1C[C@H](c2c(-c3ccc(F)cc3)[nH]c3c(F)cc(F)cc32)C1 (some centres undefined) | > 1000 | > 1000 |
| O=C(NCC1(CO)COC1)[C@H]1C[C@H](c2c(-c3ccc(F)cc3)[nH]c3c(F)cc(F)cc32)C1 | > 1000 | > 1000 |
| O=C([C@H]1C[C@H](c2c(-c3ccc(F)cc3)[nH]c3c(F)cc(F)cc32)C1)N1CCC(CCO)CC1 | > 1000 | > 1000 |
| O=C([C@H]1C[C@H](c2c(-c3ccc(F)cc3)[nH]c3c(F)cc(F)cc32)C1)N1CCO[C@H](CO)C1 | > 1000 | > 1000 |
| NC(=O)CNC(=O)[C@H]1C[C@H](c2c(-c3ccc(F)cc3)[nH]c3c(F)cc(F)cc32)C1 | < 250 | < 250 |
| O=C([C@H]1C[C@H](c2c(-c3ccc(F)cc3)[nH]c3c(F)cc(F)cc32)C1)N1CC[C@@H]1CO | < 250 | < 250 |
| O=C([C@H]1C[C@H](c2c(-c3ccc(F)cc3)[nH]c3c(F)cc(F)cc32)C1)N1CCOC(CO)C1 (some centres undefined) | > 1000 | > 1000 |
| CC(CO)(CO)NC(=O)[C@H]1C[C@H](c2c(-c3ccc(F)cc3)[nH]c3c(F)cc(F)cc32)C1 | < 250 | < 250 |
| O=C([C@H]1C[C@H](c2c(-c3ccc(F)cc3)[nH]c3c(F)cc(F)cc32)C1)N1CCCC1CCO (some centres undefined) | > 1000 | 250 |
| NC(=O)CNC[C@H]1C[C@H](c2c(-c3ccc(F)cc3)[nH]c3c(F)cc(F)cc32)C1 | < 250 | < 250 |
| O=C([C@H]1C[C@H](c2c(-c3ccc(F)cc3)[nH]c3c(F)cc(F)cc32)C1)N1CCC[C@H]1CO | > 1000 | 250 |
| O=C(NC1(CO)CC(F)(F)C1)[C@H]1C[C@H](c2c(-c3ccc(F)cc3)[nH]c3c(F)cc(F)cc32)C1 | 0.25 | < 250 |
| O=C([C@H]1C[C@H](c2c(-c3ccc(F)cc3)[nH]c3c(F)cc(F)cc32)C1)N1CCC2(COC2)C1 | > 1000 | > 1000 |
| CN1CCN(C(=O)CNC(=O)[C@H]2C[C@H](c3c(-c4ccc(F)cc4)[nH]c4c(F)cc(F)cc43)C2)CC1 | > 1000 | > 1000 |
| NC(=O)C1(NC(=O)[C@H]2C[C@H](c3c(-c4ccc(F)cc4)[nH]c4c(F)cc(F)cc43)C2)CC1 | 0.25 | 250 |

| Compound | IC50 (Apolipoprotein L1) [nM] | IC50 [1] [nM] |
| --- | --- | --- |
| C[C@H](O)[C@@H](CO)NC(=O)[C@H]1C[C@H](c2c(-c3ccc(F)cc3)[nH]c3c(F)cc(F)cc32)C1 | < 250 | < 250 |
| NC(=O)[C@@H]1CCN(C(=O)[C@H]2C[C@H](c3c(-c4ccc(F)cc4)[nH]c4c(F)cc(F)cc43)C2)C1 | > 1000 | > 1000 |
| NC(=O)C1CC(c2c(-c3ccc(F)cc3)[nH]c3c(F)cc(F)cc23)C1 (centres undefined) | 0.25 | 250 |
| CN(CC(O)CO)C(=O)[C@H]1C[C@H](c2c(-c3ccc(F)cc3)[nH]c3c(F)cc(F)cc32)C1 (some centres undefined) | > 1000 | 250 |
| O=C([C@H]1C[C@H](c2c(-c3ccc(F)cc3)[nH]c3c(F)cc(F)cc32)C1)N1CC(O)C(CO)C1 (some centres undefined) | > 1000 | 250 |
| O=C(N[C@H]1CC[C@@H]1O)[C@H]1C[C@H](c2c(-c3ccc(F)cc3)[nH]c3c(F)cc(F)cc32)C1 | > 1000 | 250 |
| CNC(=O)C(C)NC(=O)[C@H]1C[C@H](c2c(-c3ccc(F)cc3)[nH]c3c(F)cc(F)cc32)C1 (some centres undefined) | 0.25 | 250 |
| CCC1(O)CN(C(=O)[C@H]2C[C@H](c3c(-c4ccc(F)cc4)[nH]c4c(F)cc(F)cc43)C2)C1 | > 1000 | > 1000 |
| O=C(CNC(=O)[C@H]1C[C@H](c2c(-c3ccc(F)cc3)[nH]c3c(F)cc(F)cc32)C1)NC1CC1 | > 1000 | > 1000 |
| O=C(NCC1(O)CC1)[C@H]1C[C@H](c2c(-c3ccc(F)cc3)[nH]c3c(F)cc(F)cc32)C1 | 0.25 | 250 |
| O=C(N[C@@H]1CCOC1)[C@H]1C[C@H](c2c(-c3ccc(F)cc3)[nH]c3c(F)cc(F)cc32)C1 | 0.25 | 250 |
| O=C(NC(CO)CF)[C@H]1C[C@H](c2c(-c3ccc(F)cc3)[nH]c3c(F)cc(F)cc32)C1 (some centres undefined) | < 250 | < 250 |
| CN(C)C(=O)CN(C)C(=O)[C@H]1C[C@H](c2c(-c3ccc(F)cc3)[nH]c3c(F)cc(F)cc32)C1 | 0.25 | > 1000 |
| NC(=O)[C@H](CO)NC(=O)[C@H]1C[C@H](c2c(-c3ccc(F)cc3)[nH]c3c(F)cc(F)cc32)C1 | 0.25 | 250 |
| CC(CO)CNC(=O)[C@H]1C[C@H](c2c(-c3ccc(F)cc3)[nH]c3c(F)cc(F)cc32)C1 (some centres undefined) | 0.25 | 250 |
| O=C1OCC[C@@H]1NC(=O)[C@H]1C[C@H](c2c(-c3ccc(F)cc3)[nH]c3c(F)cc(F)cc32)C1 | 0.25 | 250 |
